In patent publication US3988337A, “Substituted triamino-s-triazines” (BASF Wyandotte Corporation, priority 1974, dated 1976):

What was measured:
[1] = Catalysis of toluene diisocyanate condensation to cellular/resinous carbodiimide products (Table I); conditions: 100 parts toluene diisocyanate
Experimental: Utilizing the triazines of Examples III-VI hereof, a series of cellular and resinous products characterized by carbodiimide linkages, as defined in the above-referred to patents, were prepared by the following procedure:
(§1) One hundred parts of toluene diisocyanate was admixed with a catalyst in accordance herewith. With stirring, the admixture was heated to its reaction initiation temperature at which time the reactants were transferred to a separate container for foaming.

[2] = Efficacy of triazine catalysts with 1 part methanol in the catalyst blend (Table II); conditions: 1 part of methanol introduced into the catalyst blend
Experimental: as §1
To test the efficacy of the instant catalysts, samples analogous to samples C, D and Control were prepared, but wherein 1 part of methanol was introduced into the catalyst blend.

Structure (SMILES)	Initiation Temperature ([1]; catalyst 2.0 parts) [°C]	Max. Exotherm ([1]; catalyst 2.0 parts) [°C]	Nature of Product ([1]; catalyst 2.0 parts)	Initiation Temperature ([1]; catalyst 1.0 part) [°C]	Max. Exotherm ([1]; catalyst 1.0 part) [°C]	Nature of Product ([1]; catalyst 1.0 part)	Initiation Temp. [2] [°C]	Maximum Exotherm [2] [°C]	Nature of Product [2]
CN(C)CCCN(CCO)c1nc(N(CCO)CCCN(C)C)nc(N(CCO)CCCN(C)C)n1 [Example III, 2,4,6-tris[3-dimethylamino-N-(2-hydroxyethyl)propylamino]-s-triazine]	95	180	Foam						
CCN(CC)CCN(C)c1nc(N(C)CCO)nc(N(C)CCN(CC)CC)n1 [Example VI, 2,4-bis(N-methyl-2-diethylaminoethylamino)-6-(N-methyl-2-hydroxyethylamino)-s-triazine]				94	140	Resin	25	177	Foam
CN(C)CCCN(CCCN(C)C)c1nc(N(C)CCO)nc(N(CCCN(C)C)CCCN(C)C)n1 [Example IV, 2,4-bis[bis(3-dimethylaminopropyl)amino]-6-(N-methyl-2-hydroxyethylamino)-s-triazine]	100	188	Foam						
CCCCN(CCCC)c1nc(N(CCO)CCCN(C)C)nc(N(CCCC)CCCC)n1 [Example V, 2,4-bis(dibutylamino)-6-[3-dimethylamino-N-(2-hydroxyethyl)propylamino]-s-triazine]				95	197	Resin	25		Foam
CCN(CC)c1nc(N(C)CCO)nc(N(CC)CC)n1 [DMT, 2,4-bis(diethylamino)-6-N-methylethanolamine-s-triazine, reference compound]				124	185	Foam	25		No Foam
